Assay results published in publication PMC7399337, “Biological Properties and Absolute Configuration of Flavanones From Calceolaria thyrsiflora Graham” (Frontiers in Pharmacology, 2020).
Values after ≈ are worked out from the molar mass of the structure shown.

Legend:
S. aureus MRSA 97-7 = assay: Antibacterial MIC, CLSI microdilution, human pathogens; type: cell-based; details: 18 h; for MIC: Staphylococcus aureus, read-out: Minimum inhibitory concentration (MIC)
Procedure: (§1) Briefly, stock solutions (5 mg/ml) of compounds in DMSO were diluted in Mueller-Hinton broth (MHB) to the different two-fold assay concentrations. […] The obtained solution was added to MHB and serially two-fold diluted in a 96-well microplate. A sample of 100 μL of inoculum 1.5 × 10^6 colony forming unit (CFU) ml^-1 in MHB was added and then incubated at 37°C for 18 h. The assay was repeated three times. Wells containing MHB, 100 μL of inoculum, and DMSO served as negative controls.

E. coli ATCC25922 = assay: as above; type: cell-based; details: Escherichia coli, 18 h, read-out: Minimum inhibitory concentration (MIC)
Procedure: as §1

S. aureus MRSA 622-4 = assay: as above; type: cell-based; details: 18 h; for MIC: Staphylococcus aureus, read-out: Minimum inhibitory concentration (MIC)
Procedure: as §1

S. aureus NTCC8325-4 = assay: as above; type: cell-based; details: for MIC: Staphylococcus aureus, NTCC83254, 18 h, read-out: Minimum inhibitory concentration (MIC)
Procedure: as §1

E. coli 33.1 = assay: as above; type: cell-based; details: Escherichia coli; E. coli 33.1 (multi-resistant); 18 h; read-out: Minimum inhibitory concentration (MIC)
Procedure: as §1

5-hLOX [1] = biological target: T1, 5-hLOX (Homo sapiens, UniProt P09917); assay: In vitro 5-hLOX enzyme assay (H2DCFDA fluorescence); type: biochemical; details: for Type of inhibition: 5-hLOX
T1 construct: purchased Cayman Chemicals Inc. (Ann Arbor, MI, USA)
T1 sequence (P09917 1-674): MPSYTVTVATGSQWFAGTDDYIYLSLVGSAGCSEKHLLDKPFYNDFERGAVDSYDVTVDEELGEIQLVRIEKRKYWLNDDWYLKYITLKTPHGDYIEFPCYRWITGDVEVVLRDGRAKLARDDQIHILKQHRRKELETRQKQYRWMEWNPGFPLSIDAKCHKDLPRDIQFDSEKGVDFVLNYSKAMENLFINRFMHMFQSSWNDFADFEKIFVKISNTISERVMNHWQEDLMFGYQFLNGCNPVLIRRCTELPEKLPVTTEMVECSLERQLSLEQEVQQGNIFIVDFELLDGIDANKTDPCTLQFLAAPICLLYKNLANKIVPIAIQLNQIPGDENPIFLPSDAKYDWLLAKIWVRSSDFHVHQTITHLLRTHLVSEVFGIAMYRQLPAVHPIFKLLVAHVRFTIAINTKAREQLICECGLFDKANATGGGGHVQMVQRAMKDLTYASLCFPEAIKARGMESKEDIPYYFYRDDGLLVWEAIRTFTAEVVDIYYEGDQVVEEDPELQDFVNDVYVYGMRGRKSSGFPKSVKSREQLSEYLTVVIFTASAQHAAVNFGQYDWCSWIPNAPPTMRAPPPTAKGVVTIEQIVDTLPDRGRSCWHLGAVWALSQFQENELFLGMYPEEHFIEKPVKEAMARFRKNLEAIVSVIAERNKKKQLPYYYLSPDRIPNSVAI
Procedure: The commercially available enzyme 5-hLOX from Cayman Chemicals Inc. (Ann Arbor, MI, USA), was diluted (1:500) in the assay buffer. This contained 4-(2-hydroxyethyl)-1-piperazineethane sulfonic acid (HEPES) 50 mM, ethylenediamine tetraacetic acid (EDTA) 2 mM, adenosine triphosphate (ATP) 10 μM, and CaCl2 10 μM at pH 7.5) admixed with 10 μM of H2DCFDA. The reaction mixture was incubated for 15 min in the assay plate. Later, 280 μL of buffer and 10 μM of inhibitors were added per well and incubated for 30 min at 37°C. Finally, the reaction was started by adding a suitable concentration of arachidonic acid (0.5 μM) and the fluorescence was read in a multimode detector Synergy™ HT Multi-Mode Microplate Reader (Biotek, Bad Friedrichshall, Germany) […] after incubation at room temperature for 1 h. The IC50 values were obtained for analysis of oxidation of H2DCFDA dye to the highly fluorescent 2’,7’-dichloro-fluorescein (DCF) using the non-linear curve-fitting program. […] All data were collected in duplicate and the assays were performed on different days to ensure reproducibility.

5-hLOX [2] = biological target: T1, 5-hLOX; assay: as above; type: biochemical; details: kinetic assays, inhibitor 0–1 μM, substrate 0.2–5 μM
bacterial growth = tested on: bacterial growth; design: method as in Bravo et al., 2005; details: high concentrations (1,000 µg/ml); ref Bravo et al., 2005; cited from earlier work
[3] = tested on: MDA-MB-231 human breast adenocarcinoma cells; assay: In vitro cytotoxic activity, CyQuant cell viability, 72 h; type: cell-based; details: Homo sapiens, MDA-MB-231, 72 h, read-out: LC50 ± SD
Procedure: (§2) The used cell lines include MDA-MB-231 human breast adenocarcinoma cells, B16-F10 mouse metastatic melanoma cells and MEF primary mouse embryonic fibroblast. Cells were maintained in a DMEM high glucose medium (Mediatech, Manassas, VA, USA) supplemented with 10% (MDA-MB-231 and B16-F10) or 15% (MEF) heat-inactivated fetal bovine serum (HyClone Laboratories, South Logan, USA), 100 IU ml^-1 penicillin and 100 μg ml^-1 streptomycin while maintained at 37°C in a 5% CO2 humidified atmosphere. Cell viability was measured using a CyQuant® Direct Cell Proliferation Assay Kit (Life Technologies, Grand Island, NY, USA) following the manufacturer’s instruction. Briefly, 5,000 cells per well were seeded onto a flat-bottom 96-well plate in 200 μL final volume. Six hours after seeding, the culture medium was replaced by the medium containing the tested compounds at 0.01 to 100 µM concentrations in DMSO (0.1% final concentration) during 72 h. Untreated cells (medium containing only 0.1% DMSO) were used as controls. At the end of the incubation, 100 μL of culture medium was removed from each well and replaced by detection reagent solution provided by the kit (which is a 1:5 mixture of the reagent CyQUANT®, direct nucleic acid stain and the reagent labeled as CyQUANT® direct background suppressor I). Cells were incubated for 1 h and fluorescence emission was measured at 535 nm with excitation at 480 nm in a microplate reader (Infinite 200 PRO, Tecan, Grödig, Austria). At least four independent experiments were performed for each concentration. The results from each experiment were transformed into percentage of controls and the LC50 values were graphically obtained from the dose-response curves. The LC50 value was obtained adjusting the dose-response curve to sigmoidal curves (variable slope) using the GraphPad Prisma 6.0 software ([GraphPad-Software, 2015]).

[4] = as above; type: cell-based; details: mouse
Procedure: as §2

[5] = tested on: B16-F10 mouse metastatic melanoma cells; assay: as above; type: cell-based; details: Mus musculus, B16-F10, 72 h, read-out: LC50 ± SD
Procedure: Cell viability was measured using a CyQuant® Direct Cell Proliferation Assay Kit (Life Technologies, Grand Island, NY, USA) following the manufacturer’s instruction. Briefly, 5,000 cells per well were seeded onto a flat-bottom 96-well plate in 200 μL final volume. Six hours after seeding, the culture medium was replaced by the medium containing the tested compounds at 0.01 to 100 µM concentrations in DMSO (0.1% final concentration) during 72 h. Untreated cells (medium containing only 0.1% DMSO) were used as controls. At the end of the incubation, 100 μL of culture medium was removed from each well and replaced by detection reagent solution provided by the kit (which is a 1:5 mixture of the reagent CyQUANT®, direct nucleic acid stain and the reagent labeled as CyQUANT® direct background suppressor I). […] At least four independent experiments were performed for each concentration.

B. cinerea = assay: In vitro fungicidal activity, radial mycelial growth test on PDA; type: cell-based; details: Botrytis cinerea, 72 h, read-out: Percentage of inhibition on in vitro mycelial growth of B. cinerea
Procedure: (§3) A strain of Botrytis cinerea isolated from a naturally infected grape (Vitis vinifera) was used in all experiments. Isolated Phytophtora cinnamomi was provided by the Agricultural and Livestock Service of Valparaíso. Both strains were maintained on a potato dextrose agar (PDA) medium (DIFCO, Detroit, MI) at 4°C. The inoculum of both pathogens was grown on PDA and incubates in dark at 23°C for 5 days in the case of B. cinerea and 8 days for P. cinnamomi.
(§4) The fungicidal activity of flavanones, extracts, the negative control (C-) composed of solvent (1% ethanol), and the positive control (C+, commercial fungicide Captan® and metalaxil® for B. cinerea and P. cinnamomi, respectively) were assessed using the radial growth test technique on PDA medium as described ([Taborga et al., 2015]). All test samples were dissolved in ethanol (1%) and water, to obtain final concentrations of 50, 150, and 250 mg/L in the PDA medium. A plug (4 mm) of PDA medium with five-day-old mycelium colonies of the pathogen was placed at the center of a Petri dish with PDA medium with or without studied test samples and were incubated at 23°C in dark for 72 h (B. cinerea) and 120 h (P. cinnamomi). After incubation, the diameters of colonies were measured and the inhibition percentage was calculated as the average of three replicas compared to C-.

P. cinnamomi = assay: as above; type: cell-based, Phytophtora cinnamomi; details: 120 h
Procedure: as §3, §4

O=C1CC(c2ccc(O)c(O)c2)Oc2cc(O)cc(O)c21 (centres unmarked) [Compound 3, 5,7,3’,4’-Tetrahydroxyflavanone]
MIC (S. aureus MRSA 97-7): > 100 µg/mL
MIC (E. coli ATCC25922): > 100 µg/mL
MIC (S. aureus MRSA 622-4): > 100 µg/mL
MIC (S. aureus NTCC8325-4): > 100 µg/mL
MIC (E. coli 33.1): > 100 µg/mL
Type of inhibition (5-hLOX [1]): competitive
inhibition at 10 µM (5-hLOX [1]; Flavanones at 10 µM): 88 ± 0.678%
IC50 (5-hLOX [1]; read-out: IC50 (5-hLOX)): 220 nM
Ki (5-hLOX [2]): 70 nM

O=C1C(O)Oc2ccccc2N1O (centres unmarked) [DIBOA, 2,4-dihydroxy-2H-1,4-benzoxazin-3(4H)-one]
inhibitory activity of bacterial growth (bacterial growth): inhibitory activity

CC(=O)O[C@H]1C(=O)[C@@]2(C)[C@H]([C@H](OC(=O)c3ccccc3)[C@]3(O)C[C@H](OC(=O)[C@H](O)[C@@H](NC(=O)c4ccccc4)c4ccccc4)C(C)=C1C3(C)C)[C@]1(OC(C)=O)CO[C@@H]1C[C@@H]2O [Taxol, reference compound]
CC50 [3]: 210 ± 480 nM
CC50 at 72 h [4]: 400 ± 70 nM
CC50 [5]: 480 ± 80 nM

CN[C@H](CC(C)C)C(=O)N[C@H]1C(=O)N[C@@H](CC(N)=O)C(=O)N[C@H]2C(=O)N[C@H]3C(=O)N[C@H](C(=O)N[C@H](C(=O)O)c4cc(O)cc(O)c4-c4cc3ccc4O)[C@H](O)c3ccc(c(Cl)c3)Oc3cc2cc(c3O[C@@H]2O[C@H](CO)[C@@H](O)[C@H](O)[C@H]2O[C@H]2C[C@](C)(N)[C@H](O)[C@H](C)O2)Oc2ccc(cc2Cl)[C@H]1O [Vancomicin, reference compound]
Minimum inhibitory concentration (MIC) (S. aureus MRSA 97-7): 25 µg/mL (≈ 17.3 µM)
Minimum inhibitory concentration (MIC) (S. aureus MRSA 622-4): 5 µg/mL (≈ 3.45 µM)
Minimum inhibitory concentration (MIC) (S. aureus NTCC8325-4; 18 h): 3,5 µg/ml

O=C1C2CC=CCC2C(=O)N1SC(Cl)(Cl)Cl (centres unmarked) [Captan]
inhibition at 50 µg/mL (B. cinerea; 50 mg/L): 94 ± 5.2%
inhibition at 150 µg/mL (B. cinerea; 150 mg/L): 100 ± 0.1%
inhibition at 250 µg/mL (B. cinerea; 250 mg/L): 100 ± 0.2%

O=C1Nc2ccccc2OC1O (centres unmarked) [HBOA, 2-dydroxy-2H-1,4-benzoxazin-3(4H)-one]
inhibitory activity of bacterial growth (bacterial growth): inhibitory activity

CC(Cc1ccc(O)c(O)c1)C(C)Cc1ccc(O)c(O)c1 (centres unmarked) [NDGA, nordihydroguaiaretic acid, reference compound]
Type of inhibition (5-hLOX [1]): competitive
% of inhibition (5-hLOX) (5-hLOX [1]; Flavanones at 10 µM): 93 ± 5.870%

CC1(C)S[C@@H]2[C@H](NC(=O)[C@H](N)c3ccccc3)C(=O)N2[C@H]1C(=O)O [Ampicillin, reference compound]
MIC (E. coli ATCC25922): 60 µg/mL (≈ 172 µM)
MIC (E. coli 33.1): > 100 µg/mL

COCC(=O)N(c1c(C)cccc1C)C(C)C(=O)OC (centres unmarked) [Metalaxil, reference compound]
Percentage of inhibition on in vitro mycelial growth of P. cinnamomi (P. cinnamomi; 50 mg/L): 100 ± 0.2%
Percentage of inhibition on in vitro mycelial growth of P. cinnamomi (P. cinnamomi; 150 mg/L): 100 ± 0.1%
Percentage of inhibition on in vitro mycelial growth of P. cinnamomi (P. cinnamomi; 250 mg/L): 100 ± 0.1%

COc1cc(C2CC(=O)c3c(O)cc(O)cc3O2)ccc1O (centres unmarked) [Compound 4, 3’-methoxy-4’,5,7-trihydroxyflavanone]
MIC (S. aureus MRSA 97-7): > 100 µg/mL
MIC (E. coli ATCC25922): > 100 µg/mL
MIC (S. aureus MRSA 622-4): > 100 µg/mL
MIC (S. aureus NTCC8325-4): > 100 µg/mL
MIC (E. coli 33.1): > 100 µg/mL
inhibition at 10 µM (5-hLOX [1]; Flavanones at 10 µM): 11.7 ± 2.45%

COc1cc([C@@H]2c3cc4c(cc3[C@@H](O[C@@H]3O[C@@H]5CO[C@@H](C)O[C@H]5[C@H](O)[C@H]3O)[C@H]3COC(=O)[C@H]23)OCO4)cc(OC)c1O [Etoposide, reference compound]
CC50 [3]: 1330 ± 280 nM
CC50 at 72 h [4]: 1030 ± 170 nM
CC50 [5]: 1740 ± 320 nM

O=c1[nH]c2ccccc2o1 [BOA, 2-benzoxazolinone]
inhibitory activity of bacterial growth (bacterial growth): inhibitory activity

O=C1Nc2ccc(O)cc2OC1O (centres unmarked) [Compound 7-OH-HBOA, 2,7-dihydroxy-2H-1,4-benzoxazin-3(4H)-one]
inhibitory activity of bacterial growth (bacterial growth): inhibitory activity
